According to patent publication US20250144216A1, “NEAR-INFRARED PHOTODYNAMIC THERAPY USING SECOND HARMONIC GENERATION NANOPARTICLE AND VISIBLE LIGHT REACTIVE PHOTOSENSITIZER” (ARIEL SCIENTIFIC INNOVATIONS LTD., priority 2022, published 2025):

What was measured:
S. aureus (ATCC 25923) [1] = assay: microbe, parasite or virus in culture; type: cell-based
Protocol: Laser Setup—Laser was generated using Millennia® Pro s Series 5SJSPG (Spectra physics, USA) laser setup to generate a […] continuous wave laser which was passed through an ultra-fast oscillator Femtosource® Scientific 20 (Femtolasers, Inc.) to generate the Near Infrared (800 nm) pulsed wave (pulse frequency 76.9 MHz) beamline. The beamline was appropriately arranged to provide real-time power readings using a beam splitter. Power measurements were recorded using a compact power meter PM100D (Thorlabs, Inc.) with S370C thermal power head (Thorlabs, Inc.)).
S. aureus (ATCC 25923) were grown on Brain Heart agar plates (BHA, Acumedia, Lansing, MI, USA) for 24 hours. Grown cells were transferred into Brain Heart broth (BH, Acumedia, Lansing, MI, USA) and incubated at 37±1° C. with shaking at 170 rpm until reaching the absorbance A=0.10±0.02 at 660 nm, corresponding to a final concentration of 10^8 cells/ml and diluted appropriately to the final concentration of 10^3-10^4 cells/ml with commercially available sterile 0.9% saline solution before the light and dark phototoxicity assays.
200 μl bacterial suspensions in 0.9% sterile saline solution (10^3-10^4 cells/μl) were incubated with 20 μl of PDT nanoparticle conjugates (400 μg/ml) under laser (800 nm, 232-228 mW,76.9 MHz) with shaking for 10 minutes. […] The CFUwere counted using a colony counter Scan 500.

S. aureus (ATCC 25923) [2] = assay: Dark toxicity, viability of S. aureus (CFU count); type: cell-based; conditions: dark conditions; compared to the control
Protocol: S. aureus (ATCC 25923) were grown on Brain Heart agar plates (BHA, Acumedia, Lansing, MI, USA) for 24 hours. […] 200 μl Cell suspensions in 0.9% saline (10^3-10^4 cells/ml) in sterile saline solution were incubated with 20 μl of PDT nanoparticle conjugates (400 μg/ml) in the dark with shaking for 30 minutes. Subsequently, aliquots of each sample (100 μl) were spread over BHA plates with a Drigalsky spreader and incubated at 37° C. for 24 h. The colony forming units (CFU) were counted using a colony counter Scan 500 (Interscience, Saint-Nom-la-Breteche, France).

| SMILES | inhibition at 400 µg/mL (S. aureus (ATCC 25923) [1]; Staphylococcus aureus, ATCC25923, 10 min, read-out: viability of S. aureus reduced by) | increase in viability of S. aureus (S. aureus (ATCC 25923) [2]) | viability of S. aureus increased by (S. aureus (ATCC 25923) [1]; 10 minutes pulsed NIR (800 nm) laser exposure) |
| --- | --- | --- | --- |
| C=CC1=C(C)c2cc3[nH]c(cc4nc(cc5[nH]c(cc1n2)c(C)c5CCC(=O)O)C(CCC(=O)O)=C4C)c(C)c3C=C [PPIX, protoporphyrin IX] | 20.4 ± 2.5% | – | – |
| COc1cc(/C=C/C(=O)CC(=O)/C=C/c2ccc(O)c(OC)c2)ccc1O [Curcumin, curcumin] | – | 14.2±1.1% | 20.2±1.4% |
